Paper PMC11539218 (Antimicrobial Agents and Chemotherapy, 2024)

How the values were obtained:
[1] = system: L. (L.) infantum promastigotes; assay: Short-time incubation IC50 assay in promastigotes (MTT); format: cell-based, Leishmania (L.) infantum; details: Leishmania infantum, promastigotes 2 × 10^6/well, 4 h of treatment, read-out: IC50 (50% inhibitory concentration), short-time incubation
Protocol: All experiments were performed with L. (L.) infantum promastigotes in the late-grown phase using a Hanks-Balanced Salt Solution medium supplemented with D-glucose (10 mM), exceptions were described. To establish the ideal time and concentration to investigate the mechanism of action (MoA), a new IC50 assay was performed in promastigotes in short-time incubation. Parasites (2 × 10^6/well) were treated with compound 1 serially diluted (1.6 to 300 µM) for 1, 2, 3, and 4 h, at 24°C. Parasite viability was determined using the MTT colorimetric method ([16]). Untreated cells were employed as a negative control.

[2] = system: L. (L.) infantum promastigotes; assay: DNA content / integrity (agarose gel electrophoresis); format: cell-based, Leishmania (L.) infantum; details: compound 1 169.2 µM, H2O2 10 mM; 24 h; 2% agarose gel
Protocol: Promastigotes (1 × 10^7/well) were treated with compound 1 (169.2 μM) in M199 medium supplemented with 10% FBS and 0.25% hemin, pH 7.2, for 24 h at 24°C. Then, the genetic material was extracted using the QIAamp DNA Mini Kit, according to the manufacturer’s instructions. Total DNA quantification was performed in a NanoDrop ND-1000 spectrophotometer (260/280 nm). The purified genetic material (300 ng) was analyzed by electrophoresis for 1 h at […] in a 2% agarose gel with ethidium bromide (0.5 µg/mL). Visualization was performed under UV light in a MiniBIS Pro transilluminator (DNR Bio Imaging System) ([21]). H2O2 (10 mM) was employed as positive control and untreated parasites as negative control ([26]).

[3] = system: L. (L.) infantum promastigotes; assay: Acidocalcisomes alkalinization (acridine orange); format: cell-based, Leishmania (L.) infantum; details: compound 1 169.2 µM, nigericin 4 µM; after 20 min; vs untreated
Protocol: Promastigotes (2 × 10^6/well) were pretreated with acridine orange (4 µM) in PBS, for 5 min at 24°C. The parasites were treated with compound 1 (169.2 µM). Fluorescence was monitored every 20 min up to 4 h in a spectrofluorometer, with excitation and emission wavelengths of 485 and 535 nm, respectively ([22]). Nigericin (4 µM) was employed as positive control and untreated parasites as negative control ([23]).

[4] = system: amastigotes of L. (L.) infantum; details: cited from earlier work
[5] = system: L. (L.) infantum promastigotes; assay: Total proteins of the parasite; format: cell-based, Leishmania (L.) infantum; details: promastigotes after treatment
[6] = system: L. (L.) infantum promastigotes; format: cell-based, Leishmania (L.) infantum; details: compound 1 169.2 µM, sodium azide 10 mM; 2 and 4 h; H2DCFDA; vs untreated
Protocol: Promastigotes (2 × 10^6/well) were treated with compound 1 (169.2 µM) for 2 and 4 h, at 24°C. Later, H2DCFDA (5 µM) was added and the parasites were incubated for 15 min. Fluorescence was monitored in a spectrofluorometer with excitation and emission wavelengths of 485 and 535 nm, respectively ([19]). Sodium azide (10 mM) was employed as positive control and untreated parasites as negative control.

[7] = system: L. (L.) infantum promastigotes; assay: Cell cycle (propidium iodide, flow cytometry); format: cell-based, Leishmania (L.) infantum; details: 24 h; compound 1 169.2 µM, miltefosine 25 µM
Protocol: Promastigotes (2 × 10^6/well) in exponential phase, were treated with compound 1 (169.2 µM) in M199 medium supplemented with 10% FBS and 0.25% hemin, pH 7.2, for 24 h at 24°C. In sequence, 70% (vol/vol) ice-cold ethanol was used for cell permeabilization overnight at −20°C. Then, the parasites were incubated with propidium iodide (10 µg/mL) and RNase A (20 µg/mL) for 30 min. […] Miltefosine (25 µM) was employed as positive control and untreated parasites as negative control ([25]).

[8] = system: Peritoneal macrophages infected with L. (L.) infantum amastigotes; assay: Nitric oxide in infected macrophages (Griess reagent); format: cell-based, BALB/c mice; details: compound 1 7.5 to 60 µM, LPS 25 µg/mL; 48 h; vs untreated
Protocol: L. (L.) infantum (MHOM/BR/1972/LD) promastigotes were maintained in M199 medium supplemented with 10% FBS and 0.25% hemin, pH 7.2 at 24°C. Amastigotes were isolated from golden hamsters (M. auratus) by differential centrifugation of infected spleens and the parasite’s number was determined according to Stauber ([14]). Peritoneal macrophages were obtained from the peritoneal cavity of BALB/c mice and maintained in RPMI-1640 medium supplemented with 10% FBS, pH 7.2 at 37°C.
Peritoneal macrophages (5 × 10^5/well) were infected with L. (L.) infantum amastigotes (10:1 amastigotes/macrophage) for 24 h, at 37°C with 5% CO2. Later, the cells were treated with compound 1 serially diluted (7.5 to 60 µM), under the same conditions described above. After 48 h, the supernatants were collected and incubated with Griess reagent ([28]). […] LPS (25 µg/mL) was employed as the positive control and untreated cells as the negative control ([29]).

## C=CCc1cc(OC)c(OCc2ccc(OC)cc2)c(Oc2ccc(CN3CCOCC3)cc2OC)c1 [compound 1, 4-(4-(5-allyl-3-methoxy-2-((4-methoxybenzyl)oxy)phenoxy)-3-methoxybenzyl)morpholine]
[1]
  IC50: 169 µM
[2]
  integrity of the genetic content (DNA): no alterations
[3]
  acridine orange fluorescence levels (acidocalcisomes): significantly higher
[4]; intracellular amastigotes, 24 h incubation, read-out: IC50 against amastigotes of L. (L.) infantum
  IC50: 9.7 µM
[4]; selectivity index
  SI: > 20
[5]
  total protein level: increased level of total protein
[6]
  ROS levels: significant reduction
[7]
  Proportion of parasites in different phases of the cell cycle (% ± SD): G0/G1: 46.6 ± 0.7 %
  Proportion of parasites in different phases of the cell cycle (% ± SD): M/G2: 17.9 ± 0.5%
  Proportion of parasites in different phases of the cell cycle (% ± SD): S: 11.1 ± 1.3%
  Proportion of parasites in different phases of the cell cycle (% ± SD): Sub G0: 7.5 ± 0.7 %
[8]
  NO levels: remained similar
